This passage reports IC50 results from patent US20090042964A1, “AMINO-5-[SUBSTITUTED-4-(DIFLUOROMETHOXY)PHENYL]-5-PHENYLIMIDAZOLONE COMPOUNDS AS BETA-SECRETASE INHIBITORS” (Wyeth, priority 2007, published 2009).

The target of the experiment is human BACE1 (Homo sapiens, UniProt P56817). The experiment can be described thus: Fluorescent kinetic assay, evaluation of BACE1 binding affinity of test compounds. In kind it is biochemical. To be noted: 10 nM human BACE1, 25 μM substrate WABC-6, pH 4.5, room temperature. On the procedure: Concentration is determined by absorbance at 354 nm using an extinction coefficient of 18172 M^-1 cm^-1, the concentration of stock substrate is corrected, and the substrate stock stored in small aliquots in -80° C. […] Determination of Stock Enzyme Concentration: the stock concentration of each enzyme is determined by absorbance at 280 nm using an of 64150 M^-1 cm^-1 for hBACE1 and MuBACE1, 62870 M^-1 cm^-1 for hBACE2 in 6 M Guanidinium Hydrochloride (from Research Organics, Cat. # 5134G-2), pH 6. […] Biochem. 182, 319-326). Dilution and mixing steps: total reaction volume: 100 μL 2× inhibitor dilutions in buffer A (66.7 mM Na-Acetate, pH 4.5, 0.0667% CHAPS) were prepared, 4× enzyme dilution in buffer A (66.7 mM Na-Acetate, pH 4.5, 0.0667% CHAPS) were prepared, 100 μM substrate dilution in 1×PBS was prepared, and 50 μL 2× Inhibitor, 25 μL 100 μM substrate are added to each well of 96-well plate (from DYNEX Technologies, VWR #: 11311-046), immediately followed by 25 μL 4× enzyme (added to the inhibitor and substrate mix), and the fluorescence readings are initiated.

Read-outs that look alike come from different tables or passages of the source.

Sequence of human BACE1 (P56817 46-501): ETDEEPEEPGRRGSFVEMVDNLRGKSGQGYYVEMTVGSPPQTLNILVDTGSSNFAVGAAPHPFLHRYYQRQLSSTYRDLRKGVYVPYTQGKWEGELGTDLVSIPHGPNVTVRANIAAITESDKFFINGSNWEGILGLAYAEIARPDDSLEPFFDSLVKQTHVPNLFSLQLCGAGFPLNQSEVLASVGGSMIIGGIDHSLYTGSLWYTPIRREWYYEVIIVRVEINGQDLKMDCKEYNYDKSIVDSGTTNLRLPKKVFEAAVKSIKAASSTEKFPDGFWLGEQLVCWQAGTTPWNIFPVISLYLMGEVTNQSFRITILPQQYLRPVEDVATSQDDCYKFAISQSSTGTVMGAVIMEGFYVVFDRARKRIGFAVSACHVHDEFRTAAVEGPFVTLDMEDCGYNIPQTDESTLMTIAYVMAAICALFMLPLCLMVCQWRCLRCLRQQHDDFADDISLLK

As a reminder, the IC50 is the midpoint of a concentration-inhibition curve. On to `Cc1cc([C@]2(c3ccc(F)c(OCCC(F)F)c3)N=C(N)N(C)C2=O)ccc1OC(F)F` [Example 132, (5R)-2-Amino-5-[4-(difluoromethoxy)-3-methylphenyl]-5-[3-(3,3-difluoropropoxy)-4-fluorophenyl]-3-methyl-3,5-dihydro-4H-imidazol-4-one], for which, where the note is “read-out: BACE1 IC50”, the IC50 is less than 0.1 µM.
As to `Cc1cc(C2(c3cccc(/C=C/CCF)c3)N=C(N)N(C)C2=O)ccc1OC(F)F` (stereo not drawn) [Example 63, 2-Amino-5-[4-(difluoromethoxy)-3-methylphenyl]-5-[3-((E)-4-fluorobut-1-enyl)phenyl]-3-methyl-3,5-dihydro-4H-imidazol-4-one], the IC50 (read-out: BACE1 IC50) was less than 0.1 µM.
With `CCc1cc([C@@]2(c3ccc(F)c(C#CC(C)C)c3)N=C(N)N(C)C2=O)ccc1OC(F)F` [Example 155, (5S)-2-Amino-5-[4-(difluoromethoxy)-3-ethylphenyl]-5-[4-fluoro-3-(3-methylbut-1-yn-1-yl)phenyl]-3-methyl-3,5-dihydro-4H-imidazol-4-one], the IC50 (read-out: BACE1 IC50) lay in the range of 0.11 to 1 µM.
In the case of `CCCCOc1cccc(C2(c3ccc(OC(F)F)c(Cl)c3)N=C(N)N(C)C2=O)c1` (stereo not drawn) [Example 35, 2-Amino-5-(3-butoxyphenyl)-5-[3-chloro-4-(difluoromethoxy)-phenyl]-3-methyl-3,5-dihydro-4H-imidazol-4-one], the IC50 (read-out: BACE1 IC50) is less than 0.1 µM.
`CN1C(=O)[C@](c2cccc(C#CCF)c2)(c2ccc(OC(F)F)c(C3CC3)c2)N=C1N` [Example 213, (5S)-2-amino-5-[3-cyclopropyl-4-(difluoromethoxy)phenyl]-5-[3-(3-fluoroprop-1-yn-1-yl)phenyl]-3-methyl-3,5-dihydro-4H-imidazol-4-one]: for the setting “read-out: BACE1 IC50”, the IC50 is less than 0.1 µM.
Consider `CN1C(=O)[C@@](c2ccc(F)c(OCCCF)c2)(c2ccc(OC(F)F)c(C3CC3)c2)N=C1N` (single isomer, unassigned) [Example 87], for which the IC50 (read-out: BACE1 IC50) is greater than 1 µM.
In the case of `CC(C)C#Cc1cccc(C2(c3ccc(OC(F)F)c(C4CC4)c3)N=C(N)N(C)C2=O)c1` (stereo not drawn) [Example 173, 2-amino-4-(3-cyclopropyl-4-(difluoromethoxy)phenyl)-1-methyl-4-(3-(3-methylbut-1-ynyl)phenyl)-1H-imidazol-5(4H)-one], the IC50 (read-out: BACE1 IC50) is less than 0.1 µM.
On to `CCOc1cccc(C2(c3ccc(OC(F)F)c(C)c3)N=C(N)N(C)C2=O)c1` (stereo not drawn) [Example 41, 2-Amino-5-[4-(difluoromethoxy)-3-methylphenyl]-5-(3-ethoxyphenyl)-3-methyl-3,5-dihydro-4H-imidazol-4-one], for which, for the setting “read-out: BACE1 IC50”, the IC50 is less than 0.1 µM.
Consider `CCOc1cc(C2(c3ccc(OC(F)F)c(Cl)c3)N=C(N)N(C)C2=O)ccc1F` (stereo not drawn) [Example 96, 2-Amino-5-[3-chloro-4-(difluoromethoxy)phenyl]-5-(3-ethoxy-4-fluorophenyl)-3-methyl-3,5-dihydro-4H-imidazol-4-one], for which the IC50 (read-out: BACE1 IC50) was less than 0.1 µM.
As to `Cc1cc(C2(c3cccc(C#CCCF)c3)N=C(N)N(C)C2=O)ccc1OC(F)F` (stereo not drawn) [Example 202, 2-amino-5-[4-(difluoromethoxy)-3-methylphenyl]-5-[3-(4-fluorobut-1-yn-1-yl)phenyl]-3-methyl-3,5-dihydro-4H-imidazol-4-one], the IC50 (read-out: BACE1 IC50) was less than 0.1 µM.
Under “BACE1 IC50 μM”, `CCc1cc([C@]2(c3ccccc3)N=C(N)N(C)C2=O)ccc1OC(F)F` [Example 23, (5S)-2-Amino-4-[4-(difluoromethoxy)-3-ethylphenyl]-1-methyl-4-phenyl-1H-imidazol-5(4H)-one] gave an IC50 of less than 0.1 µM.
Consider `CCc1cc([C@@]2(c3ccc(F)c(OCC(F)F)c3)N=C(N)N(C)C2=O)ccc1OC(F)F` [Example 118, (5S)-2-Amino-5-[3-(2,2-difluoroethoxy)-4-fluorophenyl]-5-[4-(difluoromethoxy)-3-ethylphenyl]-3-methyl-3,5-dihydro-4H-imidazol-4-one], for which the IC50 (read-out: BACE1 IC50) is greater than 1 µM.
For the compound `COCC/C=C/c1cc(C2(c3ccc(OC(F)F)c(C)c3)N=C(N)N(C)C2=O)ccc1F` (stereo not drawn) [Example 60, 2-Amino-5-[4-(difluoromethoxy)-3-methylphenyl]-5-[4-fluoro-3-((E)-4-methoxy-but-1-enyl)phenyl]-3-methyl-3,5-dihydro-4H-imidazol-4-one], the IC50 (read-out: BACE1 IC50) is less than 0.1 µM.
Consider `COCC#Cc1cccc([C@]2(c3ccc(OC(F)F)c(C)c3)N=C(N)N(C)C2=O)c1` [Example 70, (5R)-2-Amino-4-(4-(difluoromethoxy)-3-methylphenyl)-4-(3-(3-methoxyprop-1-ynyl)phenyl)-1-methyl-1H-imidazol-5(4H)-one], for which, for the setting “read-out: BACE1 IC50”, the IC50 fell in the range of 0.11 to 1 µM.
In the case of `CN1C(=O)[C@@](c2cccc(Br)c2)(c2ccc(OC(F)F)c(C3CC3)c2)N=C1N` (single isomer, unassigned) [Example 166], the IC50 (read-out: BACE1 IC50) is greater than 1 µM.
`C/C=C/c1cccc(C2(c3ccc(OC(F)F)c(C)c3)N=C(N)N(C)C2=O)c1` (stereo not drawn) [Example 61, 2-Amino-5-[4-(difluoromethoxy)-3-methylphenyl]-3-methyl-5-[((E)-3-prop-1-enyl)phenyl]-3,5-dihydro-4H-imidazol-4-one]: the IC50 (read-out: BACE1 IC50) is less than 0.1 µM.
Still for that read-out and setting: with `CN1C(=O)C(c2cccc(C#CC(C)(C)O)c2)(c2ccc(OC(F)F)c(C3CC3)c2)N=C1N` (stereo not drawn) [Example 179, 2-amino-4-(3-cyclopropyl-4-(difluoromethoxy)phenyl)-4-(3-(3-hydroxy-3-methylbut-1-ynyl)phenyl)-1-methyl-1H-imidazol-5(4H)-one] the figure was less than 0.1 µM; with `CCc1cc([C@@]2(c3ccc(F)c(OCCCF)c3)N=C(N)N(C)C2=O)ccc1OC(F)F` [Example 121, (5S)-2-Amino-5-[4-(difluoromethoxy)-3-ethylphenyl]-5-[4-fluoro-3-(3-fluoropropoxy)phenyl]-3-methyl-3,5-dihydro-4H-imidazol-4-one], greater than 1 µM; with `Cc1cc([C@@]2(c3ccc(F)cc3)N=C(N)N(C)C2=O)ccc1OC(F)F` [Example 4B, (5R)-2-Amino-4-(4-(difluoromethoxy)-3-methylphenyl)-4-(4-fluorophenyl)-1-methyl-1H-imidazol-5(4H)-one], 0.11 to 1 µM.
Consider `CN1C(=O)C(c2ccccc2)(c2ccc(OC(F)F)c(CCCl)c2)N=C1N` (stereo not drawn) [Example 141, 2-Amino-5-[4-(difluoromethoxy)-3-(2-chloroethyl)phenyl]-3-methyl-5-phenyl-3,5-dihydro-4H-imidazol-4-one], for which the IC50 (read-out: BACE1 IC50) is less than 0.1 µM.
Still for that read-out and setting: the same measure for `CCCOc1cccc(C2(c3ccc(OC(F)F)c(C)c3)N=C(N)N(C)C2=O)c1` (stereo not drawn) [Example 44, 2-Amino-5-[4-(difluoromethoxy)-3-methylphenyl]-3-methyl-5-(3-propoxyphenyl)-3,5-dihydro-4H-imidazol-4-one]: less than 0.1 µM.
For `COCCC#Cc1cccc(C2(c3ccc(OC(F)F)c(C4CC4)c3)N=C(N)N(C)C2=O)c1` (stereo not drawn) [Example 183, 2-amino-4-(3-cyclopropyl-4-(difluoromethoxy)phenyl)-4-(3-(4-methoxybut-1-ynyl)phenyl)-1-methyl-1H-imidazol-5(4H)-one], for the setting “read-out: BACE1 IC50”, the IC50 was less than 0.1 µM.
Under “BACE1 IC50 μM”, `Cc1cc(C2(c3ccc(OC(F)F)c(C)c3)N=C(N)N(C)C2=O)ccc1F` (stereo not drawn) [Example 20, 2-Amino-5-[4-(difluoromethoxy)-3-methylphenyl]-5-(4-fluoro-3-methylphenyl)-3-methyl-3,5-dihydro-4H-imidazol-4-one] had an IC50 of 0.11 to 1 µM.
For `Cc1cc(C2(c3cccc(OCCCF)c3)N=C(N)N(C)C2=O)ccc1OC(F)F` (stereo not drawn) [Example 45, 2-Amino-5-[4-(difluoromethoxy)-3-methylphenyl]-5-[3-(3-fluoropropoxy)phenyl]-3-methyl-3,5-dihydro-4H-imidazol-4-one], the IC50 (read-out: BACE1 IC50) was less than 0.1 µM.
`CCCC#Cc1cccc([C@@]2(c3ccc(OC(F)F)c(C)c3)N=C(N)N(C)C2=O)c1` [Example 78, (5S)-2-amino-5-[4-(difluoromethoxy)-3-methylphenyl]-3-methyl-5-(3-pent-1-yn-1-ylphenyl)-3,5-dihydro-4H-imidazol-4-one]: the IC50 (read-out: BACE1 IC50) was less than 0.1 µM.
Regarding `CN1C(=O)C(c2ccc(F)c(OCCCF)c2)(c2ccc(OC(F)F)c(C3CC3)c2)N=C1N` (stereo not drawn) [Example 85, 2-amino-5-[3-cyclopropyl-4-(difluoromethoxy)phenyl]-5-[4-fluoro-3-(3-fluoropropoxy)phenyl]-3-methyl-3,5-dihydro-4H-imidazol-4-one], the IC50 (read-out: BACE1 IC50) is less than 0.1 µM.
For `CCc1cc(C2(c3ccc(F)c(OCCCF)c3)N=C(N)N(C)C2=O)ccc1OC(F)F` (stereo not drawn) [Example 120, 2-Amino-5-[4-(difluoromethoxy)-3-ethylphenyl]-5-[4-fluoro-3-(3-fluoropropoxy)phenyl]-3-methyl-3,5-dihydro-4H-imidazol-4-one], the IC50 (read-out: BACE1 IC50) was less than 0.1 µM.
As for `CC#Cc1cccc([C@]2(c3ccc(OC(F)F)c(C4CC4)c3)N=C(N)N(C)C2=O)c1` (single isomer, unassigned) [Example 170], the IC50 (read-out: BACE1 IC50) is greater than 1 µM.
Regarding `COCCC#Cc1cccc([C@]2(c3ccc(OC(F)F)c(C4CC4)c3)N=C(N)N(C)C2=O)c1` (single isomer, unassigned) [Example 184], under “read-out: BACE1 IC50”, the IC50 was 0.11 to 1 µM.
As for `CC(C)c1cc(C2(c3ccc(F)c(C#CC4CC4)c3)N=C(N)N(C)C2=O)ccc1OC(F)F` (stereo not drawn) [Example 145, 2-Amino-5-[3-(cyclopropylethynyl)-4-fluorophenyl]-5-[4-(difluoromethoxy)-3-isopropylphenyl]-3-methyl-3,5-dihydro-4H-imidazol-4-one], the IC50 (read-out: BACE1 IC50) was less than 0.1 µM.
